# B1: WT NRG1α (175-241): wild type human neuregulin 1 fragment, residues 175-241 of SEQ ID NO:4 (SEQ ID NO:5), entire EGF-like motif and α domain (protein)
# chain: GTSHLVKCAEKEKTFCVNGGECFMVKDLSNPSRYLCKCQPGFTGARCTENVPMKVQNQEKAEELYQK
# modifications: integrin-binding site within human neuregulin, residues 175-241of human neuregulin 1alpha, long version
# B2: 3KE (175-241): NRG1α (175-241) with Lys181/Lys185/Lys187 mutated to Glu, SEQ ID NO:6 (3KE, long version) (protein)
# chain: GTSHLVECAEEEETFCVNGGECFMVKDLSNPSRYLCKCQPGFTGARCTENVPMKVQNQEKAEELYQK
# modifications: integrin-binding site within human neuregulin, residues 175-241of human neuregulin 1alpha, long version, 3KE mutant
# Key:
# [1] = tested on: integrin β3 cytoplasmic domain; test: Tyr-phosphorylation of integrin β3 cytoplasmic domain in M21 cells, Western blotting; assay type: cell-based, human; conditions: 10 ng/ml, serum-starved, 30 min
# Procedure: FIG. 13. Wt NRG1 (175-222) enhanced Tyr-phosphorylation of the integrin β3 cytoplasmic domain, while 3KE (175-222) suppressed it in M21 cells. Serum-starved M21 cells were stimulated with 10 ng/ml wt or 3KE NRG1 (175-222). Tyr-phosphorylation of β3 was determined by Western blotting of cell lysates.
# It has recently been reported that Tyr phosphorylation of the β3 tail plays a role in VEGF and insulin-like growth factor-1 (IGF1) (Clemmons et al. 2007; Mahabeleshwar et al. 2007). It was tested if NRG1 signaling requires Tyr-phosphorylation of the β3 tail in M21 cells. As shown here, the β3 tail is constitutively Tyr-phosphorylated in serum-starved cells.
# CHO cells = test: ERK1/2 activation in CHO cells, Western blotting; assay type: cell-based, Chinese hamster; conditions: serum-starved
# Procedure: FIG. 14. […] ErbB4 was stably expressed in CHO cells (designated ErbB4-CHO cells). ErbB4 was detected in a cell lysate of ErbB4-CHO cells by western blotting (top). Serum-starved CHO or ErbB4-CHO cells were stimulated with wt NRG1 (175-222) or the 3KE (175-222) mutant and ERK1/2 activation was measured by Western blotting.
# CHO cells express endogenous ErbB2 and ErbB3, but no ErbB4. CHO cells that express ErbB4 were generated by transfecting ErbB4 expression vector (designated ErbB4-CHO). […] It is therefore believed that the direct binding of integrin […] the Ras-MAP kinase pathway in ErbB4-CHO cells.
# B-16 F10 Cells = test: B16F10 cell proliferation, MTS assay; assay type: cell-based, mouse; conditions: 24 hours
# Procedure: FIG. 10. […] B-16 F10 Cells were starved for 5 days in DMEM+1% FBS medium, and then added 3KE (175-222) and WT (175-222) NRG1 at indicated concentrations for 24 hours by MTS assays. P=0.0354 (between wt and 3KE+wt) and P<0.0001 (between wt and 3KE) by 2-way ANOVA.
# Cell proliferation: cells were starved by culturing DMEM with low-level FCS (e.g., 0.4%) overnight and then treated with the wt or mutant NRG1 (175-222) (up to 100 ng/ml). The cells were harvested in 15 min to 6 h after stimulation and cell lysates analyzed by western blotting with antibodies specific to signaling molecules. Alternatively, cells were cultured for 24-48 h after stimulation for testing proliferation or cell viability by MTS assays. Statistical analysis and calculation of kinetic constants were performed using Prism software (Graphpad).
# [2] = target: T1, Recombinant human ErbB3 Fc chimera (Homo sapiens, UniProt P21860); test: Competitive binding assay on immobilized ErbB3; conditions: biotin labeled WT 20 nM
# T1 construct: Recombinant soluble ErbB3 Fc fusion protein was coated onto well of 96-well microtiter plate; purchased R&D Systems
# T1 sequence (P21860 20-643 limits assumed, change not shown): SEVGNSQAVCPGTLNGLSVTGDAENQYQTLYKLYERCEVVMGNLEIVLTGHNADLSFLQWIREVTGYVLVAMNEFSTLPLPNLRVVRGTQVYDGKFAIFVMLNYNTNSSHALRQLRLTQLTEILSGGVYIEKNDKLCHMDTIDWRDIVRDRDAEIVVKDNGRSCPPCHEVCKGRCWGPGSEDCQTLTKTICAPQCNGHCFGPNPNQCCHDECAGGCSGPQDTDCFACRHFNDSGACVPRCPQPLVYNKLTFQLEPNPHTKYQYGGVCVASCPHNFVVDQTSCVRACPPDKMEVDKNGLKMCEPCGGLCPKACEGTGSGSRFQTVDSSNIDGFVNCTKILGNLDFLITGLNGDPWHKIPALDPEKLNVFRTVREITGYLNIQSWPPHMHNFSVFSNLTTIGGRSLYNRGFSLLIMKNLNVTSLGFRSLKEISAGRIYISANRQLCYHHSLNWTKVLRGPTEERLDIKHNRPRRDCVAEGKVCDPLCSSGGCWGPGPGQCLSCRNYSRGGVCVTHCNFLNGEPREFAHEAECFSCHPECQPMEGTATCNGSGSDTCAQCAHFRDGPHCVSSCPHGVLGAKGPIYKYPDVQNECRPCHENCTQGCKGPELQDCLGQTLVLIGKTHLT
# Procedure: FIG. 20. The 3KE mutant of NRG1α (175-241) binds to ErbB3. a). Binding of the 3KE mutant of NRG1α (175-241) to recombinant ErbB3. Recombinant soluble ErbB3 Fc fusion protein (R&D system) was coated onto wells of 96-well microtiter plate (1 μg/ml). NRG1α (175-241) WT or 3KE (175-241) mutant was added to the wells and incubated for 1 h at room temperature. GST was used as a control. After washing the wells, bound GST NRG1α (175-241) was determined by using anti-GST antibody HRP conjugate. […] Competitive binding assay. Recombinant soluble ErbB3 Fc fusion protein was coated onto well of 96-well microtiter plate (1 μg/ml). Binding of biotin labeled NRG1α (175-241) WT (20 nM) in the presence of increasing concentrations of NRG1α (175-241) WT, 3KE (175-241) or GST. After washing the wells, bound biotin labeled NRG1α (175-241) WT was determined by using streptavidin HRP conjugate.
# GST-fusion WT NRG1α (175-241) was biotinylated by using EZ-Link Sulfo-NHS-LC-Biotin (Pierce) as described in the manufacturer's instructions. Briefly, GST-fusion WT NRG1α (175-241) was incubated with sulfo-NHS-LCBiotin for 1 hour on ice, and remaining free sulfo-NHS-LC-Biotin was quenched with Tris-HCl buffer pH 8.0. Recombinant human ErbB3 Fc chimera (R&D Systems) was immobilized to wells of 96-well microtiter plate at 1 μg/ml coating concentration in 0.1 M NaHCO3, pH9.4 overnight at 4° C., and the remaining protein binding sites were blocked by incubating with 0.1% BSA. Wells were then incubated with biotinylated GST fusion NRG1α (175-241) in the presence of non-labeled GST, GST-WT NRG1α (175-241) or GST-3KE (175-241) for 3 h at room temperature. Bound biotinylated GST-fusion NRG1α (175-241) WT to wells was determined with streptavidin HRP conjugate and HRP substrate at 490 nm.
# αvβ3-ErbB3 complex = target: T2, αvβ3-ErbB3 complex (Homo sapiens, UniProt P05106+P06756+P21860); test: Co-immunoprecipitation of integrin αvβ3 and ErbB3 in MCF-7 cells; assay type: cell-based; conditions: for Co-precipitation of integrin β3 with ErbB3 in MCF-7 cells: 5 nM, 5-30 min
# T2 construct: endogenous in cells; host or cells: MCF-7
# T2 sequence (P21860 20-1342): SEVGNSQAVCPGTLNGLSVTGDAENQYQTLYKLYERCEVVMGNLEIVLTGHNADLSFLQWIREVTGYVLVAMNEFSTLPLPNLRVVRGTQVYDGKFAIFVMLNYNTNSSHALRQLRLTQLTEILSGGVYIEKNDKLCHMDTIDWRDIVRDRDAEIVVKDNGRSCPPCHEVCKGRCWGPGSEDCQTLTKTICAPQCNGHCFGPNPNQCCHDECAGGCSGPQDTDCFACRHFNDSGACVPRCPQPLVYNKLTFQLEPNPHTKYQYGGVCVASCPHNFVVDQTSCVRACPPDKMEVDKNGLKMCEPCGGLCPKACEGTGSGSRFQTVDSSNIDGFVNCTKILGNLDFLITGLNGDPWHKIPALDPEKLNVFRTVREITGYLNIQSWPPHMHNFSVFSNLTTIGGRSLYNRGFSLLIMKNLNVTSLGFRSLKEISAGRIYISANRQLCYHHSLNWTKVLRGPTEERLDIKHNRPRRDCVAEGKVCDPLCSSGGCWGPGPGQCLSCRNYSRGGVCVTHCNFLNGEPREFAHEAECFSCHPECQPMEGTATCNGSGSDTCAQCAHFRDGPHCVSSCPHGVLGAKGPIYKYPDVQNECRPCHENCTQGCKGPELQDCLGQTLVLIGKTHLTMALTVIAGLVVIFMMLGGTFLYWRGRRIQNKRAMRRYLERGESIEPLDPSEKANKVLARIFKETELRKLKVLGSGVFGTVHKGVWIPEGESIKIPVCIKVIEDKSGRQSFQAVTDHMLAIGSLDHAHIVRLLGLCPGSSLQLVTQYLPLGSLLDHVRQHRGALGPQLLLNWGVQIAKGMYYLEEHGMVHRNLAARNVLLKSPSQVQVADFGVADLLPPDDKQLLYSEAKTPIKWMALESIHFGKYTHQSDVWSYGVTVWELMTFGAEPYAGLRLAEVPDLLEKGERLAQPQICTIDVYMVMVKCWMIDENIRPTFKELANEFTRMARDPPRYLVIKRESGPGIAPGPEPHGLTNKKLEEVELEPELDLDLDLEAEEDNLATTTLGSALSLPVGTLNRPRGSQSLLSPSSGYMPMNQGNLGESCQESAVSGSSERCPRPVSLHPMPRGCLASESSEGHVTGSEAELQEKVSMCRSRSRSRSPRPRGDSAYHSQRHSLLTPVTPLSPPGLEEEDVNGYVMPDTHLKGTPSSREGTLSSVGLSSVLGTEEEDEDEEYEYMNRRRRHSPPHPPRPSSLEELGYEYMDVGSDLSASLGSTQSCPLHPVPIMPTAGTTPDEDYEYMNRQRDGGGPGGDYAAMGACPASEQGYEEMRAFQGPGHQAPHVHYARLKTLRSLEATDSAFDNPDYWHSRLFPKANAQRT
# T2 sequence (P06756 31-1048): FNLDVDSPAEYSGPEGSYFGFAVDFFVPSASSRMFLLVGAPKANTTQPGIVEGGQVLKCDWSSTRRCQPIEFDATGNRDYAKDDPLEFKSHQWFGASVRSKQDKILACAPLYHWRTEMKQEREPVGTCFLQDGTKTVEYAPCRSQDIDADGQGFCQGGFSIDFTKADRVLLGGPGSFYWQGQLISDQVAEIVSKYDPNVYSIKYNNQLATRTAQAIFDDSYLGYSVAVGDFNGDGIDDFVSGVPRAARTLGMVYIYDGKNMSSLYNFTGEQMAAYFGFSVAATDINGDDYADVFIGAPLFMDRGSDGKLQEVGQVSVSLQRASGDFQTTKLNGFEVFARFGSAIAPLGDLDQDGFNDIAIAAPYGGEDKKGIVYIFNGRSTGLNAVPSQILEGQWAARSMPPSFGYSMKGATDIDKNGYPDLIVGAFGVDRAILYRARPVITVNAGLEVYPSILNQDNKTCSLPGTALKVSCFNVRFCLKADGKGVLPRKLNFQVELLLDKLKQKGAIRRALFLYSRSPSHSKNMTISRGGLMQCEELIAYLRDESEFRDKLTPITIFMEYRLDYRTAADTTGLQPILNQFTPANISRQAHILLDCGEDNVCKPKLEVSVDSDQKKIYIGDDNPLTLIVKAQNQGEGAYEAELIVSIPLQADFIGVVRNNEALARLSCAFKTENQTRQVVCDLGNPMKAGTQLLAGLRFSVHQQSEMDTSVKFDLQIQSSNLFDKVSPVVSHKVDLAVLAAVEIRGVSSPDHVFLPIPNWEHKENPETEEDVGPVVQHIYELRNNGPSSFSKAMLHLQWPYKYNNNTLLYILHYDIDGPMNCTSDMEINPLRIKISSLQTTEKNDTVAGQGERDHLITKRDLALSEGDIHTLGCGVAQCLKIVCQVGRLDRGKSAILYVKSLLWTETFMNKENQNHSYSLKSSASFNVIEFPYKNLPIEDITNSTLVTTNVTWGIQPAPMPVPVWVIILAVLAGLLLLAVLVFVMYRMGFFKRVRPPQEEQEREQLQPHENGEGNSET
# T2 sequence (P05106 27-788): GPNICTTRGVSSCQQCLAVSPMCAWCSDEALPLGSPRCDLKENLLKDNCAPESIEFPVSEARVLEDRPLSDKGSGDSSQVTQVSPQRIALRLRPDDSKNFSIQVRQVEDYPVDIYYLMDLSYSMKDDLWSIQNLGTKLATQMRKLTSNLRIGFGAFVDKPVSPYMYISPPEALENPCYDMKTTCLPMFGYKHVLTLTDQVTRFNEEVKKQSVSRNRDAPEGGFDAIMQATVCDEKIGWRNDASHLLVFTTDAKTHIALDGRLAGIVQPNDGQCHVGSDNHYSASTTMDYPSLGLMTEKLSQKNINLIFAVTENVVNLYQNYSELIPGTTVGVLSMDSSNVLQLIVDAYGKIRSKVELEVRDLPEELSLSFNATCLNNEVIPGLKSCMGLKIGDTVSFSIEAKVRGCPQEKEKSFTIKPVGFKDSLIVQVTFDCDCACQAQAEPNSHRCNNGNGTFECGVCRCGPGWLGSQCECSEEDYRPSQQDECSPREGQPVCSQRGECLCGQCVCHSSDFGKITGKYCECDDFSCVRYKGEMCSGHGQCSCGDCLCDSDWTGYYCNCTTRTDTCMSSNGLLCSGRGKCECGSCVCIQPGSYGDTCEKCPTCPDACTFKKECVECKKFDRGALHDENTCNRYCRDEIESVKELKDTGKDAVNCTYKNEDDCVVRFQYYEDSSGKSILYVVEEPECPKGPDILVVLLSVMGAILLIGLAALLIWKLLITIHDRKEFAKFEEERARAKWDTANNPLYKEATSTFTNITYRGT
# Procedure: FIG. 21. WT NRG1α (175-241) induced co-precipitation of integrin αvβ3 and ErbB3, while 3KE (175-241) is defective in this function. a) MCF-7 cells were serum-starved overnight and stimulated with WT or 3KE NRG1α (175-241) at indicated time points. In the present invention, 1 mg protein of cell lysate was used for immuno-precipitation of the αvβ3-ErbB3 complex with anti-ErbB3 antibody Immunoprecipitated materials were analyzed by Western blotting using antibodies specific to ErbB3, phosphorylated ErbB3, or integrin β3. The levels of ErbB3 phosphorylation were less with the 3KE mutant (175-241). Integrin αvβ3 was co-immuno-precipitated with the ErbB3 in 5-30 min upon stimulation with WT NRG1α (175-241), while the 3KE (175-241) mutant was defective in this function. b) Levels of β3 coprecipitation. In the present invention, the levels of β3 co-precipitation from digital images was quantified using ImageJ. The data are normalized with time 0 as 1 from two independent experiments.
# Five minutes to 3 h after treatment with 5 nM WT or 3KE mutant NRG1α (175-241), MCF-7 cells were washed with ice-cold PBS and lysed with lysis buffer. The cell lysate was incubated with anti-ErbB3 overnight at 4° C. The immune complex was recovered by incubating with protein A Sepharose (GE Healthcare) for 1 hour at 4° C. and washed three times with wash buffer (20 mM HEPES (pH 7.4), 100 mM NaCl, 10% Glycerol, 0.5% NP-40, 1 mM MgCl2, 5 mM EDTA, 0.5% Triton X-100, 1 mM phenylmethylsulfonyl fluoride, 20 mM NaF, 1 mM Na3VO4, protease inhibitor cocktail (Sigma-Aldrich)). The immunoprecipitates were analyzed by western blotting with antibodies specific to integrin β3.
Molecule,Tyr-phosphorylation of the integrin β3 tail in M21 cells [1],ERK1/2 activation in (mock-transfected) CHO cells (CHO cells),ERK1/2 activation in (mock-transfected) CHO cells (CHO cells; listed as 3KE (175-222)),Induction of cell proliferation in B16F10 cells (B-16 F10 Cells),Suppression of cell proliferation in B16F10 cells (B-16 F10 Cells; P=0.0354 between wt and 3KE+wt),Competition for binding of biotinylated WT NRG1α (175-241) to immobilized soluble ErbB3 [2],Co-precipitation of integrin β3 with ErbB3 in MCF-7 cells (αvβ3-ErbB3 complex),Competition for binding of biotinylated WT NRG1α (175-241) to immobilized soluble ErbB3 ([2]; listed as 3KE NRG1α (175-241)),Competition for binding of biotinylated WT NRG1α (175-241) to immobilized soluble ErbB3 ([2]; listed as 3KE mutant of NRG1α (175-241)),Levels of ErbB3 phosphorylation in anti-ErbB3 immunoprecipitates of MCF-7 cells (αvβ3-ErbB3 complex; compared with WT NRG1α (175-241))
"3KE (175-222): NRG1 (175-222) with Lys181/Lys185/Lys187 mutated to Glu; GTSHLVECAEEEETFCVNGGECFMVKDLSNPSRYLCKCQPGFTGARCT (SEQ ID NO:11) (integrin-binding site within human neuregulin, 3KE mutant, short version)",suppressed it,suppressed,suppressed ERK1/2 activation,did not induce them,Suppression of cell proliferation,–,–,–,–,–
"wt NRG1 (175-222): wild type human neuregulin 1 fragment, EGF-like domain, residues 175-222 of SEQ ID NO:4 (SEQ ID NO:3) (GTSHLVKCAEKEKTFCVNGGECFMVKDLSNPSRYLCKCQPGFTGARCT; integrin-binding site within human neuregulin 1 EGF-like region and portion of alpha domain, residues 175-222 of human neuregulin 1 alpha) [reference compound]",enhanced levels of Tyr-phosphorylation,enhanced ERK1/2 activation,–,induced cell proliferation,–,–,–,–,–,–
B1,–,–,–,–,–,at comparable levels,increased the amount of integrin β3 protein that co-precipitates with ErbB3,–,–,–
B2,–,–,–,–,–,–,did not,at comparable levels,binds to ErbB3 at levels comparable to WT NRG1α (175-241),less
